Each compound was assayed against T1, Mtb cytochrome bd (Mycobacterium tuberculosis, UniProt L7N662+O06139). Conditions: read-out: % remaining OCR at 10 μM.
T1 sequence (L7N662 1-485): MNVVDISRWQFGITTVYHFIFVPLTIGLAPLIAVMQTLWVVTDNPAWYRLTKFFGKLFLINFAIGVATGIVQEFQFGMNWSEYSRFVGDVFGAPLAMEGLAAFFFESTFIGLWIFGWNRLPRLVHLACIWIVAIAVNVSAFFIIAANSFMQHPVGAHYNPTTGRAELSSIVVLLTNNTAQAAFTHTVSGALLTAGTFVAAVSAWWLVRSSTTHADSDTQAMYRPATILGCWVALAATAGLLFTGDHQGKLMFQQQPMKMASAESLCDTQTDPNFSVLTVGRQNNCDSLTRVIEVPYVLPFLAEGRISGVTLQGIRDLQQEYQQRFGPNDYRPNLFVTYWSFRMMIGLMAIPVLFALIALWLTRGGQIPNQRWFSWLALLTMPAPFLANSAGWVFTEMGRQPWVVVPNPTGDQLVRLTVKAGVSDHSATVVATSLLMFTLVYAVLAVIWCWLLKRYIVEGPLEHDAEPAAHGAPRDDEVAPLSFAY
T1 sequence (O06139 1-346): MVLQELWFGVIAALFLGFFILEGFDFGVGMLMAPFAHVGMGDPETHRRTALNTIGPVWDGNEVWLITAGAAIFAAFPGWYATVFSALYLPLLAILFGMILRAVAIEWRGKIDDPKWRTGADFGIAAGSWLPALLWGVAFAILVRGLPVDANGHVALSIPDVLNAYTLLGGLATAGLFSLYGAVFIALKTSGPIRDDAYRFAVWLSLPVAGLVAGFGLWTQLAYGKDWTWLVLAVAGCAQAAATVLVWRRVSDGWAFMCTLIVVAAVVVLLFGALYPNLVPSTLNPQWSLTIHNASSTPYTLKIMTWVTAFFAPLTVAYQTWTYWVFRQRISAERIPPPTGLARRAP
Format: biochemical

Compound | remaining activity at 10 µM [%]
CCOc1ccc(-c2nc(CSc3nc4ccccc4c(=O)n3CCCN3CCCC3=O)c(C)o2)cc1 [F3382-2259] | 30.4
C=CCSc1ncc(-c2ccccc2)n1-c1ccc(C)cc1 [F2964-1180] | 50.6
CC(C)(c1cc(Br)c(OCC(O)CN2CCN(Cc3ccccc3)CC2)c(Br)c1)c1cc(Br)c(OCC(O)CN2CCN(Cc3ccccc3)CC2)c(Br)c1 (stereo not drawn) [F0777-1198] | 51
